Measurements as given in BindingDB's records for doi:10.1021/jm300317k (University of Manchester, 2012).

Target: Glucose-6-phosphate 1-dehydrogenase (Homo sapiens, UniProt P11413)
Experiment: Inhibition of human recombinant N-terminal His tagged G6PD expressed in Escherichia coli JM109 (DE3) cells assessed as production of NADPH after 30 mins by Amplite fluorimetric assay

Glucose-6-phosphate 1-dehydrogenase, sequence (P11413 whole entry): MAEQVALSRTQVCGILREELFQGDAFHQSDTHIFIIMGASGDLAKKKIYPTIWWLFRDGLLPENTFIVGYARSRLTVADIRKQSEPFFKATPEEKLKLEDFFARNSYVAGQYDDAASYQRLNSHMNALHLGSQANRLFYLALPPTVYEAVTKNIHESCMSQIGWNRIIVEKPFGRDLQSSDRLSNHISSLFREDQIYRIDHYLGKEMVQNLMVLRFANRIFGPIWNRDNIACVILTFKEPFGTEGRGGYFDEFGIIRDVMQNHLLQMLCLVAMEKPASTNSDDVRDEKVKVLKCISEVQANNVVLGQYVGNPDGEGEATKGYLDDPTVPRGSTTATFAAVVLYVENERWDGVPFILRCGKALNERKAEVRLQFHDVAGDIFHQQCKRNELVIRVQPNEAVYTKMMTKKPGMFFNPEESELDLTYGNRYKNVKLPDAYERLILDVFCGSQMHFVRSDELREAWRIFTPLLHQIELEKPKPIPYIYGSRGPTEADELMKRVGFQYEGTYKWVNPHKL

Structure (SMILES): CC(N=O)[C@H]1CC[C@H]2[C@@H]3CC[C@H]4C[C@@H](O)CC[C@]4(C)[C@H]3CC[C@]12C (some centres not stated)
- IC50: > 200 µM

Structure (SMILES): C[C@]12CC[C@H](O)C[C@@H]1CC[C@@H]1[C@@H]2CC[C@]2(C)C(N=O)CC[C@@H]12 (some centres not stated)
- IC50: > 200 µM
